The subject of this experiment is MHFD offspring. As to the kind of experiment: Three-chamber social test in MHFD offspring. It counts as in vivo, mice. The conditions noted are these: in drinking water, 4 weeks. The protocol:
Crawley's three-chamber test for sociability and preference for social novelty was performed as described (Silverman et al., 2010). In brief, the mouse first experienced a 10-minute period of habituation during which it was allowed to freely explore a 60×40×23 cm Plexiglass arena divided into three equally sized, interconnected chambers (Left, Center, Right). Sociability was measured during a second ten-minute period in which the subject could interact either with an empty wire cup (Empty) or a wire cup containing an age and sex-matched stranger conspecific (Mouse 1). Time spent interacting (sniffing, crawling upon) with either the empty cup or the stranger mouse contained in the other cup as well as time spent in each chamber was recorded using the AnyMaze software, by independent observers. Empty cup placement in the Left or Right chamber during the Sociability period was counterbalanced between trials. Finally, preference for social novelty was assayed by introducing a second stranger mouse (Mouse 2) into the previously the empty wire cup. Time spent in each chamber as well as time spent interacting with either Mouse 1 or Mouse 2 was recorded using the automated AnyMaze software by independent observers. Lactobacillus reuteri MM4-1A (ATCC-PTA-6475) and Lactobacillus johnsonii (ATCC 33200) were cultured anaerobically in MRS broth in a 90% N2, 5% CO2, 5% H2 environment. L. reuteri was heat-killed by keeping the bacteria at 80° C. for 20 minutes (Wang et al., 2010). Bacterial viability was assessed by plating and the efficacy of the heat-kill procedure was confirmed by the absence of colony growth following plating. Cultures were centrifuged, washed, and resuspended in anaerobic solution (PBS) and frozen at −80° C. until use. PBS, live or heat-killed L. reuteri were added to the drinking water, which was changed daily to minimize dosage variability. Whereas the experimental group received live bacteria, one control group received identically prepared cultures of heat-killed bacteria. A second group of control mice received water treated with PBS alone. Live and heat-killed L. reuteri were supplied at a dosage of 1×10^8 organisms/mouse/day continuously in drinking water. Mice consumed the treated water ad libitum over the treatment period. The treated drinking water for each group was replaced daily two hours prior to the onset of the dark cycle to minimize variation in microbial exposure. Behavioral assays were initiated after 4-weeks of L. reuteri or control treatment. The protocol of the L. johnsonii preparation and administration matched the L. reuteri protocol. Fecal samples for sequencing and tissue used in the immunofluorescence studies were collected at the end of the treatment. Oxytocin was obtained from Tocris Bioscience (product 1910) and solubilized in 10% dimethyl sulfoxide (DMSO) in PBS. 10% DMSO in PBS was used as the vehicle control. Mice received oxytocin intranasally (at approximately 200 μg/kg) thirty minutes prior to behavior. 1.25 μl of oxytocin or vehicle solution was injected into each nostril from P10 pipette. Oxytocin dose was selected according to dosages reported to rescue social behavior in genetic models phenotypically expressing ASD-like behaviors (Penagarikano et al., 2015).

Experimental findings from patent US11135252B2, “Probiotic therapies for developmental disorders and other neurological disorders” (Baylor College of Medicine, priority 2016, dated 2021) are described below.

“Also recorded” adds a separate entry of the source.

As for “Lactobacillus johnsonii (ATCC 33200) [L. johnsonii]”, the “social behavior / social deficits (sociability and preference for social novelty)” value is “failed to rescue social behaviors; also recorded: Failed to Reverse Social Deficits”.
